Tested on: recombinant HIV-2 protease
Assay: In vitro inhibition of recombinant HIV-2 protease expressed in Escherichia coli strain X90

## O=C(C=CC[N+]1([O-])CCC(O)(c2ccc(Cl)cc2)CC1)c1ccc(F)cc1 (stereo unspecified) [(E)-4-[4-(4-Chloro-phenyl)-4-hydroxy-1-oxy-piperidin-1-yl]-1-(4-fluoro-phenyl)-but-2-en-1-one]
  IC50: 40 µM

Reference: BindingDB's records for doi:10.1021/jm00031a017 (University of California, 1994)
